ChEMBL document CHEMBL5678804 (Cancer Cell, 2011)
pIC50: −log10 of the molar value. Activity calls are given as the source filed them. No cut-off for these calls is given here.

Key:
[1] = molecular target: Casein kinase I isoform alpha (Homo sapiens, UniProt P48729); experiment: Inhibition of human wild type CK1 alpha using Casein as substrate preincubated for 2 hrs followed by ATP addition and measured every 2 mins for […] by spectrophotometric analysis
Ephrin type-A receptor 7 = Ephrin type-A receptor 7 (Homo sapiens, UniProt Q15375); experiment: Inhibition of human wild type EPHA7 using PolyEY as substrate preincubated for 2 hrs followed by ATP addition and measured every 2 mins for […] by spectrophotometric analysis
[2] = molecular target: Serine/threonine-protein kinase 33 (Homo sapiens, UniProt Q9BYT3); experiment: Inhibition of human wild type STK33 using RBER-CHKtide as substrate preincubated for 2 hrs followed by ATP addition and measured every 2 mins for […] by spectrophotometric analysis
[3] = molecular target: PAS domain-containing serine/threonine-protein kinase (Homo sapiens, UniProt Q96RG2); experiment: Inhibition of human wild type PASK using RBER-CHKtide as substrate preincubated for 2 hrs followed by ATP addition and measured every 2 mins for […] by spectrophotometric analysis
[4] = molecular target: Mitogen-activated protein kinase kinase kinase kinase 4 (Homo sapiens, UniProt O95819); experiment: Inhibition of human wild type HGK using Casein as substrate preincubated for 2 hrs followed by ATP addition and measured every 2 mins for […] by spectrophotometric analysis
[5] = molecular target: T1, MAP kinase-activated protein kinase 2 (Homo sapiens, UniProt P49137); experiment: Inhibition of human MK2 preincubated for 2 hrs followed by ATP addition and measured every 2 mins for […] by spectrophotometric analysis
[6] = molecular target: Serine/threonine-protein kinase DCLK2 (Homo sapiens, UniProt Q8N568); experiment: Inhibition of human wild type DCamKL2 using RBER-CHKtide as substrate preincubated for 2 hrs followed by ATP addition and measured every 2 mins for […] by spectrophotometric analysis
[7] = molecular target: Tyrosine-protein kinase ZAP-70 (Homo sapiens, UniProt P43403); experiment: Inhibition of human wild type ZAP70 using PolyEY as substrate preincubated for 2 hrs followed by ATP addition and measured every 2 mins for […] by spectrophotometric analysis
[8] = molecular target: Insulin receptor-related protein (Homo sapiens, UniProt P14616); experiment: Inhibition of human wild type IRR using Poly(Ala,Glu,Lys,Tyr)6:2:5:1 as substrate preincubated for 2 hrs followed by ATP addition and measured every 2 mins for […] by spectrophotometric analysis
[9] = molecular target: Tyrosine-protein kinase JAK1 (Homo sapiens, UniProt P23458); experiment: Inhibition of human wild type JAK1 using RBER-IRStide as substrate preincubated for 2 hrs followed by ATP addition and measured every 2 mins for […] by spectrophotometric analysis
[10] = molecular target: T2, Tyrosine-protein kinase ABL1 (Homo sapiens, UniProt P00519); conditions: Sf9, time 2.0 hrs
[11] = molecular target: Serine/threonine-protein kinase TBK1 (Homo sapiens, UniProt Q9UHD2); experiment: Inhibition of human wild type TBK1 using Casein as substrate preincubated for 2 hrs followed by ATP addition and measured every 2 mins for […] by spectrophotometric analysis
[12] = molecular target: Bcr/Abl fusion protein (Homo sapiens) (UniProt P00519+P11274); experiment: Inhibition of BCR-ABL1 phosphorylation in Ph+ B-ALL patient with […] mutation derived human Leukemia cell at 50 to 1000 nM by immunoblot analysis; format: cell-based; conditions: dose 50-1000 nM
[13] = molecular target: T2, Tyrosine-protein kinase ABL1; conditions: Sf9, time 2.0 hrs; remark: listed apart in the source
CDK1/Cyclin A = CDK1/Cyclin A (Homo sapiens, UniProt P06493); experiment: Inhibition of human wild type CDK1/cyclinA using RBER-CHKtide as substrate preincubated for 2 hrs followed by ATP addition and measured every 2 mins for […] by spectrophotometric analysis; format: protein-complex assay
[14] = molecular target: Myosin light chain kinase 2, skeletal/cardiac muscle (Homo sapiens, UniProt Q9H1R3); experiment: Inhibition of human wild type MLCK2 using RB-S6P as substrate preincubated for 2 hrs followed by ATP addition and measured every 2 mins for […] by spectrophotometric analysis
[15] = molecular target: Mitogen-activated protein kinase 13 (Homo sapiens, UniProt O15264); experiment: Inhibition of human wild type p38 delta using RBER-CHKtide as substrate preincubated for 2 hrs followed by ATP addition and measured every 2 mins for […] by spectrophotometric analysis
[16] = molecular target: Dual specificity tyrosine-phosphorylation-regulated kinase 1A (Homo sapiens, UniProt Q13627); experiment: Inhibition of human wild type DYRK1 using RBER-CHKtide as substrate preincubated for 2 hrs followed by ATP addition and measured every 2 mins for […] by spectrophotometric analysis
[17] = molecular target: Dual specificity mitogen-activated protein kinase kinase 6 (Homo sapiens, UniProt P52564); experiment: Inhibition of human wild type MKK6 using p38-alpha KA as substrate preincubated for 2 hrs followed by ATP addition and measured every 2 mins for […] by spectrophotometric analysis
[18] = system: Tyrosine-protein kinase ABL1 (Homo sapiens), P00519 [T315I]; conditions: time 2.0 hrs
[19] = molecular target: Protein kinase C delta type (Homo sapiens, UniProt Q05655); experiment: Inhibition of human wild type PKC delta using 3xChocktide-PKC(19to 31) as substrate preincubated for 2 hrs followed by ATP addition and measured every 2 mins for […] by spectrophotometric analysis
Mononuclear cell line = experiment: Inhibition of myeloid colony formation in CML patient derived human Mononuclear cell line; format: functional, cell-based; conditions: dose 50-200 nM
[20] = molecular target: Mitogen-activated protein kinase 12 (Homo sapiens, UniProt P53778); experiment: Inhibition of human wild type p38 gamma using RBER-IRStide as substrate preincubated for 2 hrs followed by ATP addition and measured every 2 mins for […] by spectrophotometric analysis
[21] = Inhibition of human wild type PDGFR beta using Poly(Ala,Glu,Lys,Tyr)6:2:5:1 as substrate preincubated for 2 hrs followed by ATP addition and measured every 2 mins for […] by spectrophotometric analysis
[22] = molecular target: Tyrosine-protein kinase receptor TYRO3 (Homo sapiens, UniProt Q06418); experiment: Inhibition of human wild type SKY using PolyEY as substrate preincubated for 2 hrs followed by ATP addition and measured every 2 mins for […] by spectrophotometric analysis
[23] = molecular target: Tyrosine-protein kinase JAK3 (Homo sapiens, UniProt P52333); experiment: Inhibition of human wild type JAK3 using Poly(Ala,Glu,Lys,Tyr)6:2:5:1 as substrate preincubated for 2 hrs followed by ATP addition and measured every 2 mins for […] by spectrophotometric analysis
[24] = molecular target: Rho-associated protein kinase 1 (Homo sapiens, UniProt Q13464); experiment: Inhibition of human wild type ROCK1 using 3xChocktide-PKC([…] to […]) as substrate preincubated for 2 hrs followed by ATP addition and measured every 2 mins for […] by spectrophotometric analysis
[25] = molecular target: T1, MAP kinase-activated protein kinase 2; experiment: Inhibition of human wild type MAPKAPK2 using RBER-CHKtide as substrate preincubated for 2 hrs followed by ATP addition and measured every 2 mins for […] by spectrophotometric analysis
[26] = molecular target: Myosin light chain kinase (Homo sapiens, UniProt Q32MK0); experiment: Inhibition of human wild type MLCK using RB-S6P as substrate preincubated for 2 hrs followed by ATP addition and measured every 2 mins for […] by spectrophotometric analysis
Myosin light chain kinase, sequence (Q32MK0 whole entry): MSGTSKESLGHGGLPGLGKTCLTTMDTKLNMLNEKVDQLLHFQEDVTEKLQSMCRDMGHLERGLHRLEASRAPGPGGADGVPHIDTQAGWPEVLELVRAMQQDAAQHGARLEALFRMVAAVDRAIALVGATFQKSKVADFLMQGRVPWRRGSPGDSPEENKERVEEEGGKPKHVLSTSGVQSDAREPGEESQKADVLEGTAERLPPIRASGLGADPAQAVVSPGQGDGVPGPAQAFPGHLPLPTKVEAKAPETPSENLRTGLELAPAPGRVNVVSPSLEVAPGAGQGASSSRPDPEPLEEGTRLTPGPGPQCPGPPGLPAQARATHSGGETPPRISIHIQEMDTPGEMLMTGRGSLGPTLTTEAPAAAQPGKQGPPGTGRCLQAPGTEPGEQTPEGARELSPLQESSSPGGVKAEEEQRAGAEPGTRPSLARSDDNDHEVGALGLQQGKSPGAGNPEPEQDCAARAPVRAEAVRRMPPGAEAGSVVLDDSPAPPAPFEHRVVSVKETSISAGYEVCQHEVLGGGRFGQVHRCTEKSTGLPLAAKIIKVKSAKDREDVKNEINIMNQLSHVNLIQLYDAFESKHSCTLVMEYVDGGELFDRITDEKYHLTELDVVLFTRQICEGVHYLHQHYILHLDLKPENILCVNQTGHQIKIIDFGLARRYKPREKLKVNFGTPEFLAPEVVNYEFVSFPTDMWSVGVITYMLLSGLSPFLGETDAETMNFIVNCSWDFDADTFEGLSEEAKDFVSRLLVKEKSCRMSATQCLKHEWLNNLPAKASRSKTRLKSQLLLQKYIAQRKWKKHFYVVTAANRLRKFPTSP

T1 sequence (P49137 whole entry): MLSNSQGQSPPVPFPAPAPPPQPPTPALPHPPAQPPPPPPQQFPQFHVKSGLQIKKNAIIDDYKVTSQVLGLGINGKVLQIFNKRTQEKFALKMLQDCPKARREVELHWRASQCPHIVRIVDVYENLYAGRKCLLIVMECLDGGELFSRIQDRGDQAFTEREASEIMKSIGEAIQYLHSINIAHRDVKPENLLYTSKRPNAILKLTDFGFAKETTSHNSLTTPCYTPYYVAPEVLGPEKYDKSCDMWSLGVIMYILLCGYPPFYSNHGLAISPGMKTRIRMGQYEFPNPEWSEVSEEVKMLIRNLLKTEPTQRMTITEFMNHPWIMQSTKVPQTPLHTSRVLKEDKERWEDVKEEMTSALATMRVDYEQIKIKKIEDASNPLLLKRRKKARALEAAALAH
Protein kinase C delta type, sequence (Q05655 whole entry): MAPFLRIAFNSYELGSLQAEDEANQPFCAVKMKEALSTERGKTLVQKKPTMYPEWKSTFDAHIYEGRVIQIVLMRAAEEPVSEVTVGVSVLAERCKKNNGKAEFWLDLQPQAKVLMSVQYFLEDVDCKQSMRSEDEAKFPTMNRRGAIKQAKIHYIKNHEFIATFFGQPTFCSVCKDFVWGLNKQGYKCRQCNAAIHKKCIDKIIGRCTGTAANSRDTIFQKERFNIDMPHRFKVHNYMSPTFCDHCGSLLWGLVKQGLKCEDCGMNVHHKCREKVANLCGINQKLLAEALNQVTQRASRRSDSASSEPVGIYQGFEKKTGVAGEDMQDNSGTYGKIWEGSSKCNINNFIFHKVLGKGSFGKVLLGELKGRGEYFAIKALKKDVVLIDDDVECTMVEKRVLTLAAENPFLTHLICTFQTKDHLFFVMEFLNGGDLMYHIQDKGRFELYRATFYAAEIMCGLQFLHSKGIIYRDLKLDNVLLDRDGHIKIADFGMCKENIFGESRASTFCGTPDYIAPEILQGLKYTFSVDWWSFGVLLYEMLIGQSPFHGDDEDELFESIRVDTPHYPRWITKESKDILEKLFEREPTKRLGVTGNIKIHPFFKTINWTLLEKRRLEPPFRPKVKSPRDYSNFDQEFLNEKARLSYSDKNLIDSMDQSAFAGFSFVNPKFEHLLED
Dual specificity mitogen-activated protein kinase kinase 6, sequence (P52564 whole entry): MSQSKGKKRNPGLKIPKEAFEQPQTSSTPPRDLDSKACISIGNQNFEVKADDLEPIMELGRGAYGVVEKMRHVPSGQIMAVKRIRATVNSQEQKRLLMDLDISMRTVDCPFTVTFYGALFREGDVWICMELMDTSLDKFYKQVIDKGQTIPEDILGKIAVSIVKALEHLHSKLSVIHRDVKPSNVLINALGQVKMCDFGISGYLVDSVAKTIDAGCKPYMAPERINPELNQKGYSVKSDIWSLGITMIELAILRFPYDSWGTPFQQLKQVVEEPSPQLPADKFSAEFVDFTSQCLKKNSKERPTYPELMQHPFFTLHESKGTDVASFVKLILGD
Mitogen-activated protein kinase 12, sequence (P53778 whole entry): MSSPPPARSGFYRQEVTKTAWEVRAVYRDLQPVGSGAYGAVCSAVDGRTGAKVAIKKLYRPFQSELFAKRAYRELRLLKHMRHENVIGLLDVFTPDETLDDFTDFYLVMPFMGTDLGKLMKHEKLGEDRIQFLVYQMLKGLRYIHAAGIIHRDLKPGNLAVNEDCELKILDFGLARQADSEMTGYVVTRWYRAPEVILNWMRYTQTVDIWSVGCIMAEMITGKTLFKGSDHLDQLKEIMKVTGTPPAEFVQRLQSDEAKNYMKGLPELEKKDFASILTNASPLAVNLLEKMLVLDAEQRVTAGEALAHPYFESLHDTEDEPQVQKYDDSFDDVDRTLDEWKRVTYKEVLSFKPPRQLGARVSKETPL
Tyrosine-protein kinase ZAP-70, sequence (P43403 whole entry): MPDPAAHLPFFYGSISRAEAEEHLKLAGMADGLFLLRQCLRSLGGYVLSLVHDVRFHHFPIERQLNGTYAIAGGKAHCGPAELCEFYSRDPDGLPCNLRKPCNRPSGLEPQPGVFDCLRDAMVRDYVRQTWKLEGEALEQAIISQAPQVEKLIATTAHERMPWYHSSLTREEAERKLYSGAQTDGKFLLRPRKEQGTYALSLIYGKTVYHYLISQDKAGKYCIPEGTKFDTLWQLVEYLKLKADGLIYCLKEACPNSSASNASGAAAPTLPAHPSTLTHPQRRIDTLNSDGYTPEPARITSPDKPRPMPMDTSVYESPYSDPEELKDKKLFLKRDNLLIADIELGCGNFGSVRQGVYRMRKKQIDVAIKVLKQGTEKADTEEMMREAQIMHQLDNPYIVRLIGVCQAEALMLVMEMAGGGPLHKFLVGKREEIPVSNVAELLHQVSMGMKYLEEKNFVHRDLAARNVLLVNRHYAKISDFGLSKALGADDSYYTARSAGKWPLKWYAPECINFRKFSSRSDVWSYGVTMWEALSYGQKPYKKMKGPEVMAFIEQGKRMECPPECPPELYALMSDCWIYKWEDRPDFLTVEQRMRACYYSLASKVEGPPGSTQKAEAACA
Rho-associated protein kinase 1, sequence (Q13464 whole entry): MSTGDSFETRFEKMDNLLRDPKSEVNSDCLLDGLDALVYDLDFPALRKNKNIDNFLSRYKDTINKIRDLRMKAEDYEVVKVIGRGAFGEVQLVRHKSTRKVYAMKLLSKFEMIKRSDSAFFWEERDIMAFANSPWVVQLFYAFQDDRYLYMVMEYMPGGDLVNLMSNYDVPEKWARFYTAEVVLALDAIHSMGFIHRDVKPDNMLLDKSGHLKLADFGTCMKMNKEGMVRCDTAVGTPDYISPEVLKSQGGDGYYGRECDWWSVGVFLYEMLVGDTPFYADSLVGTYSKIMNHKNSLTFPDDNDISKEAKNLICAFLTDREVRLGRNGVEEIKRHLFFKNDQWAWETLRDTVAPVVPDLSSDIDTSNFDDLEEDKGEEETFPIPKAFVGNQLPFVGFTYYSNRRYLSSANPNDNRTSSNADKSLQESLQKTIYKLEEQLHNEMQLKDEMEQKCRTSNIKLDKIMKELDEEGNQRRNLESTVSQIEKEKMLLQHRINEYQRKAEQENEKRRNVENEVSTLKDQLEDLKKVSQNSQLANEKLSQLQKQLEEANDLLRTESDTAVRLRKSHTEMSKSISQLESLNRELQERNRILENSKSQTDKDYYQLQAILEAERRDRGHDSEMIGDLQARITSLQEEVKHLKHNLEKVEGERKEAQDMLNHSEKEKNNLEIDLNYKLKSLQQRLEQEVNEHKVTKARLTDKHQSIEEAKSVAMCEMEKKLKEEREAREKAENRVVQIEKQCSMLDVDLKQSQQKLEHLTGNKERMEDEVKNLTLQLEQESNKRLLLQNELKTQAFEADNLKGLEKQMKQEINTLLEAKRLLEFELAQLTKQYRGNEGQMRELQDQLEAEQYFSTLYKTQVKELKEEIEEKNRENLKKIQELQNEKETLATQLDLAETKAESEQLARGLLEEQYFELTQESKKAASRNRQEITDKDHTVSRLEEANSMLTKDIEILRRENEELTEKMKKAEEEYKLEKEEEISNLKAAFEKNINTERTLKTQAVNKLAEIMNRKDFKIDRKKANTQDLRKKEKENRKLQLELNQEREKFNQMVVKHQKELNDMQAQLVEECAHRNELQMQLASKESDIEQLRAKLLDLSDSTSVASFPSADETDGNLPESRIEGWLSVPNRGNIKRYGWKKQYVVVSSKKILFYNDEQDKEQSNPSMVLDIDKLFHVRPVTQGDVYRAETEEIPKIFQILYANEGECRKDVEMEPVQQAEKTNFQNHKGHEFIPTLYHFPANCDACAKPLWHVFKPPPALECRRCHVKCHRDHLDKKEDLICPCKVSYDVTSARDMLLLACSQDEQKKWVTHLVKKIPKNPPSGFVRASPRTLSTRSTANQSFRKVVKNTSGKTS
Casein kinase I isoform alpha, sequence (P48729 whole entry, canonical isoform): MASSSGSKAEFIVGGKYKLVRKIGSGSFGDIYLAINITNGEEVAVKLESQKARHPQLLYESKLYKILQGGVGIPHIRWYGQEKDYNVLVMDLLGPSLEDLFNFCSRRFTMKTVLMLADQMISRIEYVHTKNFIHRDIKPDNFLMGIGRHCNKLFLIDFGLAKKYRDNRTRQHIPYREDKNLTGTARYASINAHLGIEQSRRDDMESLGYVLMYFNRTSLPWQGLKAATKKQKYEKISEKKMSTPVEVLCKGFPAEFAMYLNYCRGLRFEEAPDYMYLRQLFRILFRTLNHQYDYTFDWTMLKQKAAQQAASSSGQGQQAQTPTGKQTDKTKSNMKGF

SMILES: CNC(=O)c1cc(Oc2ccc(NC(=O)Nc3cc(C(C)(C)C)nn3-c3ccc4ncccc4c3)c(F)c2)ccn1 [REBASTINIB]
- pIC50 [1]: < 6.00
- pIC50 (Ephrin type-A receptor 7): 7.06
- pIC50 [2]: < 6.00
- pIC50 [3]: < 6.00
- pIC50 [4]: 7.35
- pIC50 [5]: < 6.00
- pIC50 [6]: < 6.00
- pIC50 [7]: < 6.00
- pIC50 [8]: < 6.00
- pIC50 [9]: 6.07
- Kdiss [10]: 3.33e-05 s⁻¹
- pIC50 [11]: < 6.00
- inhibition [12]: Active
- T1/2 [13]: 6.53 h
- pIC50 (CDK1/Cyclin A): < 6.00
- pIC50 [14]: < 6.00
- pIC50 [15]: < 6.00
- pIC50 [16]: < 6.00
- pIC50 [17]: < 6.00
- Kdiss [18]: 1.67e-05 s⁻¹
- pIC50 [19]: < 6.00
- inhibition (Mononuclear cell line): Dose-Dependent Effect
- pIC50 [20]: < 6.00
- pIC50 [21]: 6.95
- pIC50 [22]: 7.06
- pIC50 [23]: < 6.00
- pIC50 [24]: < 6.00
- pIC50 [25]: < 6.00
- pIC50 [26]: < 6.00
